Calls of active or inactive are those of the source.
Columns and labels:
[1] = target: T1, RNA-binding protein pos-1 (Caenorhabditis elegans, UniProt G5EF15); assay: disruptors of C. elegans POS-1 RNA interaction – biochemical, fluorescence polarization, dose response (AID 1964);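 also: purified POS-1 fused to maltose binding protein made in E. coli; potency of compounds blocking POS-1 binding to fluorescent RNA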
T1 sequence (G5EF15 whole entry): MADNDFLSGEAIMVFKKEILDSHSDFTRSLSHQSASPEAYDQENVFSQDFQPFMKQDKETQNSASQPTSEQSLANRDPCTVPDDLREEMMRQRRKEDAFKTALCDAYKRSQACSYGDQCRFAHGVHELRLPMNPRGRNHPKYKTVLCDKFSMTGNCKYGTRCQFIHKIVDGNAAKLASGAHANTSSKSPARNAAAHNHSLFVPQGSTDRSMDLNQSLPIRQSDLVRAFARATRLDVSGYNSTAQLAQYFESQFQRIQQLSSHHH

[2] = target: T2, Zinc finger protein mex-5 (Caenorhabditis elegans, UniProt Q9XUB2); assay: potency of MEX-5 RNA-binding blockers – biochemical, C. elegans, fluorescence polarization, dose response (AID 1960)
T2 sequence (Q9XUB2 whole entry): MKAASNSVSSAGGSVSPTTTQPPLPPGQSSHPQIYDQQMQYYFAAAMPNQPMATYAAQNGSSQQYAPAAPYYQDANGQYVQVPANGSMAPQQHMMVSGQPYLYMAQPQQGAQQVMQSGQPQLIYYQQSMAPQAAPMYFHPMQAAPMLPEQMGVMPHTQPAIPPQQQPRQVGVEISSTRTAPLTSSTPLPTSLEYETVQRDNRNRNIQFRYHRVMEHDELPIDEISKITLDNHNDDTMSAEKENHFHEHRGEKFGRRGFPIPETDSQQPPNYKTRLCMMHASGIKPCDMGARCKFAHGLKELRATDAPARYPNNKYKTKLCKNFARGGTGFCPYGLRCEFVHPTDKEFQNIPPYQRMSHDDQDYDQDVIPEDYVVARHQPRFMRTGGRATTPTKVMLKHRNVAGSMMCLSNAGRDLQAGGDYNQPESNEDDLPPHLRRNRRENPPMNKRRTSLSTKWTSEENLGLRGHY

[3] = target: Large T antigen (Simian virus 40, UniProt P03070); type: functional, Betapolyomavirus macacae;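 also: Confirmatory-stage PubChem screen for compounds that inhibit SV40 T antigen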
[4] = target: T3, Carboxy-terminal domain RNA polymerase II polypeptide A small phosphatase 1 (Homo sapiens, UniProt Q9GZU7); assay: CTDSP1 inhibitors, concentration-response, biochemical, absorbance readout, ultra-high-throughput screen actives (AID 540297); type: functional
T3 sequence (Q9GZU7 whole entry): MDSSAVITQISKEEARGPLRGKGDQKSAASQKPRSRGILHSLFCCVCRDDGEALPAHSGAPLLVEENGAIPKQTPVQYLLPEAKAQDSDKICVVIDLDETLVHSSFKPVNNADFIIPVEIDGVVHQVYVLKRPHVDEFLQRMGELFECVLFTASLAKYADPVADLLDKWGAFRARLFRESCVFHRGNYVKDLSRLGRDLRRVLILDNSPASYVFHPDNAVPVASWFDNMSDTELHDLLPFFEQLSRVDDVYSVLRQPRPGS

[5] = target: T4, Calpain-2 catalytic subunit (Sus scrofa, UniProt P43367); assay: m-calpain protease blockers, concentration series – biochemical, fluorogenic peptide substrate, dose response (AID 1420); type: functional
T4 sequence (P43367 whole entry): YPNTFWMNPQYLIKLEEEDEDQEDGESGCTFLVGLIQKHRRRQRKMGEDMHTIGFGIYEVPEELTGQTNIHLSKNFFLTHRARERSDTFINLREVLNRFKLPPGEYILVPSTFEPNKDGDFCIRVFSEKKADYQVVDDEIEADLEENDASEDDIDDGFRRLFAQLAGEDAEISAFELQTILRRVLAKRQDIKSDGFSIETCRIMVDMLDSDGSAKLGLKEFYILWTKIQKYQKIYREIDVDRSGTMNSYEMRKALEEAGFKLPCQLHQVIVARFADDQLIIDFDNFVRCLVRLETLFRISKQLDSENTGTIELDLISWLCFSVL

[6] = blockers of HIV-1 envelope-mediated cell-cell fusion – cherry-pick, dose response (AID 652057); type: functional, cell-based
[7] = target: FAD-linked sulfhydryl oxidase ALR (Homo sapiens, UniProt P55789); assay: ALR-catalysed DTT oxidation blockers – biochemical, H2O2 detection, luminescence, cherry-pick, dose response (AID 493248)
[8] = target: T5, Rac GTPase-activating protein 1 (Homo sapiens, UniProt Q9H0H5); assay: blockers of MgcRacGAP-driven Rac1 GTP hydrolysis – biochemical, ADP Hunter fluorescence, primary and confirmatory, confirmation (AID 624330); type: functional
T5 sequence (Q9H0H5 whole entry): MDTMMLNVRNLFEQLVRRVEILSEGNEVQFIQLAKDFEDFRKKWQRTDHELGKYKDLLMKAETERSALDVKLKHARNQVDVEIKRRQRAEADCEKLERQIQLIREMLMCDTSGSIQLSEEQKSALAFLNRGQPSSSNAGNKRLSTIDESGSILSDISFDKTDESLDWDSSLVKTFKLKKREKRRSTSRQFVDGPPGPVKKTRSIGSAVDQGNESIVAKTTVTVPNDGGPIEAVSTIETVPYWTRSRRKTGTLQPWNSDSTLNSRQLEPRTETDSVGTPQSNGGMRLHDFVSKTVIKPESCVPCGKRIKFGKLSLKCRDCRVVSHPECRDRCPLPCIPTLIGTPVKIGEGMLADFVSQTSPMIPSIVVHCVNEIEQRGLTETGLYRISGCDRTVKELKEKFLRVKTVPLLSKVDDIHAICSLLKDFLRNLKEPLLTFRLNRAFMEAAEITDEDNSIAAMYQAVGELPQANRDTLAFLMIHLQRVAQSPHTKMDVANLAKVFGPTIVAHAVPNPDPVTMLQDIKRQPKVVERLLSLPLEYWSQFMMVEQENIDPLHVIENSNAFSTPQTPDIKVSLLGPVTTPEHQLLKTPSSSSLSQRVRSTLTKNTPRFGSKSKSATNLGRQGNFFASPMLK

[9] = target: T6, Protein skinhead-1 (Caenorhabditis elegans, UniProt P34707); type: functional
T6 sequence (P34707 whole entry): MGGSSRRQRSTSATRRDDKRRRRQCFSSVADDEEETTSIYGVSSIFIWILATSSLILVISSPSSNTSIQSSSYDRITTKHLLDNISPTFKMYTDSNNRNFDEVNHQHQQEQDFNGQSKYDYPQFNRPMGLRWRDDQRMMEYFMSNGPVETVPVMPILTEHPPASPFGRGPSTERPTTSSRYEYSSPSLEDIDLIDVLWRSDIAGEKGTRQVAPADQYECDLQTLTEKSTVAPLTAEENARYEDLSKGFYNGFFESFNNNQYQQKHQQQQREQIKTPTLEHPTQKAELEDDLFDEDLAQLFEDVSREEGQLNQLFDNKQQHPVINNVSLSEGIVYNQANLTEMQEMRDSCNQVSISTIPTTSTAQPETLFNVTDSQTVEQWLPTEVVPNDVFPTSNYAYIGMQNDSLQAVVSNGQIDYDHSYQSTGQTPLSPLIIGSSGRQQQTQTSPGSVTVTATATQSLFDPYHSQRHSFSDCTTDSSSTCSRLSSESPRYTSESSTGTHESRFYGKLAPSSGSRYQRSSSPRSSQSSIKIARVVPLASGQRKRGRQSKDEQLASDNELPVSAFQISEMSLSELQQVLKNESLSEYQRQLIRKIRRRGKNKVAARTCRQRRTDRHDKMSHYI

[10] = HIV-1 AD8 envelope cell-cell fusion blockers – cherry-pick, dose response (AID 652062); type: functional, cell-based;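 also: luciferase signal from cell-cell fusion driven by HIV-1 clade B AD8 Env; potency is for inhibitors of fusion seen as a drop in luminescence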
[11] = target: Cytochrome P450 2C9 (Homo sapiens, UniProt P11712)
[12] = blockers of HIV-1 ZM109 envelope-driven cell-cell fusion – HeLa effector, CEM target cells, luciferase, cherry-pick, dose response (AID 652058); type: functional, cell-based;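 also: luciferase signal from HIV-1 Env mediated cell-cell fusion of effector and target cells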
[13] = P. falciparum Dd2 growth inhibitors, dose response, SYBR Green, cherry-picked samples (AID 1159567); type: functional, cell-based

Chain of Large T antigen (P03070 whole entry, the tested form may be a part): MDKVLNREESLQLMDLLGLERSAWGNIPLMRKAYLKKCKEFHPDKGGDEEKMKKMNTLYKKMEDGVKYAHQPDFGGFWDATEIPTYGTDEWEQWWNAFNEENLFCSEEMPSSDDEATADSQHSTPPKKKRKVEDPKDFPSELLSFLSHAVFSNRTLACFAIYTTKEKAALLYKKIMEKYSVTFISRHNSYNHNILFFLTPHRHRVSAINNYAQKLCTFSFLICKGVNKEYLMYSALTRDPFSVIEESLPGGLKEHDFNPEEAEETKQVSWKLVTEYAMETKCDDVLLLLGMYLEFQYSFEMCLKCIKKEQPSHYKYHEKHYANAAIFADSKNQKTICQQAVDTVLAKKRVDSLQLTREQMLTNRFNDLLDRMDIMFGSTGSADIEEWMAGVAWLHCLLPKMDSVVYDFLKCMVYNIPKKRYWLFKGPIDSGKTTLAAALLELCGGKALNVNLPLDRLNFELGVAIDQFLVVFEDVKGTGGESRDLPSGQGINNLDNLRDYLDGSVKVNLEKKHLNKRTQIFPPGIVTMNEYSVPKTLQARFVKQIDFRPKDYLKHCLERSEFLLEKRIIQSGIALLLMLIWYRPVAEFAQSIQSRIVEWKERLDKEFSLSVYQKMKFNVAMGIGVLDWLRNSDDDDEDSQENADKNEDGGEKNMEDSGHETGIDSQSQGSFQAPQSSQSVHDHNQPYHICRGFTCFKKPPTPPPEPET
Chain of FAD-linked sulfhydryl oxidase ALR (P55789 whole entry): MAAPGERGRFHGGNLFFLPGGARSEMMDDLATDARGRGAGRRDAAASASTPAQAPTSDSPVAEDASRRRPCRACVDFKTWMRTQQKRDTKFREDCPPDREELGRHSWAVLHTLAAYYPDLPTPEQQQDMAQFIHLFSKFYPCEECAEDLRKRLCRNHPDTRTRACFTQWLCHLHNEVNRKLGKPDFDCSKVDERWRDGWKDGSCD
Chain of Cytochrome P450 2C9 (P11712 whole entry, the tested form may be a part): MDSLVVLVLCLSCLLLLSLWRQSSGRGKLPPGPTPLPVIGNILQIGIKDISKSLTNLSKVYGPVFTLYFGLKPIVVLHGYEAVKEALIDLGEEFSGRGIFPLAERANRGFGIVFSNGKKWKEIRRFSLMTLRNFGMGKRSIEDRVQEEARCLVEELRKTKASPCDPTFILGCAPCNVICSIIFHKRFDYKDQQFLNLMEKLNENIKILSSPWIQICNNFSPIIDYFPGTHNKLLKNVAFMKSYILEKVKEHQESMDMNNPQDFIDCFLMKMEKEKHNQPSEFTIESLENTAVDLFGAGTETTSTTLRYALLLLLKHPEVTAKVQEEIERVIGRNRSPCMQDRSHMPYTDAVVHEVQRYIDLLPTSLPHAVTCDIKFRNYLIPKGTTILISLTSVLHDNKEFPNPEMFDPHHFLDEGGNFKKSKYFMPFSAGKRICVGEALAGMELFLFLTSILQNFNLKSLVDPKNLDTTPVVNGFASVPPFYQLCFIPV

Cc1ccc2c(c1)N/C(=C\C(=O)CC(C)C)C(=O)O2
EC50 [1]: > 300 µM (not active)
EC50 [2]: > 300 µM (not active)
IC50 [3]: 7.15 µM (active)

CC1(C(O)(C#CC[N+]2(C)CCCCC2)c2ccccc2)CCCC1 (centres undefined)
IC50 [4]: 9.1 µM (active)

CC(C)Cn1c(S)nnc1-c1csc2c1CCCC2
IC50 [5]: 13.5 µM (not active)

CSc1cccc(NC(=O)CSc2ccc(Cl)cc2)c1
IC50 [5]: 8.93 µM (not active)

O=C(Nc1ccc(Cl)cc1)C1CCCN(C2=NS(=O)(=O)c3ccccc32)C1 (centres undefined)
AC50 [6]: 25.9 µM (active)

O=[N+]([O-])c1ccc(CSC2=NCCS2)cc1
AC50 [7]: 5.31 µM (active)

CCN(CC)c1ccc(N/C=C2\C(=O)NC(=O)N(c3cc(OC)ccc3OC)C2=O)cc1
EC50 [1]: > 300 µM (not active)
EC50 [2]: > 300 µM (not active)
IC50 [3]: 19.8 µM (active)

CCOC(=O)/C=C1\CC(C(=O)OCC)Oc2c(OC)cccc21 (centres undefined)
IC50 [4]: 16.7 µM (active)

O=C(OCc1ccccc1)Oc1cncc(C(=O)O)c1
AC50 [7]: 0.072 µM (active)

C=CCNC(=O)c1ccc(Cn2c(=S)[nH]c3cc4c(cc3c2=O)OCO4)cc1
IC50 [4]: 8.27 µM (active)

CCOC(=O)CCNC(C)C1COc2ccccc2O1 (centres undefined)
IC50 [8]: 178 µM (active)

Cc1ccc(NC(=O)CSc2ccccc2NC(=O)c2ccccc2Cl)cc1Cl
IC50 [4]: 7.38 µM (active)

Cc1ccc(SCCNC(=O)CN2C(=O)c3ccccc3S2(=O)=O)cc1
IC50 [9]: > 100 µM (inactive)

COc1cccc2cc(C(=O)Oc3ccc(NC(C)=O)cc3)c(=O)oc12
IC50 [8]: 34.9 µM (active)

O=C(COC(=O)CC12CC3CC(CC(C3)C1)C2)Nc1cccnc1Cl
IC50 [5]: > 50 µM (not active)

COc1ccc(OCCN(C)C(=O)c2cccc(S(=O)(=O)N(C)c3ccccc3)c2)cc1
IC50 [9]: > 100 µM (inactive)

COCCN(C(=O)COC(=O)Cc1coc2cc3c(cc12)CCC3)c1c(N)n(Cc2ccccc2)c(=O)[nH]c1=O
IC50 [4]: 6.23 µM (active)

Fc1ccc(OCc2nc3ccccc3s2)cc1
IC50 [9]: > 100 µM (inactive)

Fc1ccc(CSc2nnc(-c3ccco3)o2)cc1
IC50 [9]: 30.1 µM (active)

N#Cc1c(-c2ccco2)cc(-c2ccccc2)[nH]c1=O
IC50 [3]: 68.7 µM (active)

CN(C)S(=O)(=O)NC(c1ccccc1)c1ccccc1
IC50 [9]: > 100 µM (inactive)

O=C(CSc1nnc(CNc2ccc(F)cc2)n1Cc1ccco1)NC1CC1
IC50 [9]: > 100 µM (inactive)

CC(=O)c1ccc(S(=O)(=O)N2CCNC(=O)C2)cc1
AC50 [7]: 3.33 µM (active)

COC(=O)c1ccc(NC(=O)c2cccc(Cl)c2)o1
AC50 [7]: 20.9 µM (active)

O=C(NCCCN1CCc2ccccc2C1)Nc1ccc(Cl)cc1
AC50 [6]: 3.52 µM (active)
AC50 [10]: 39.9 µM (active)
AC50 [11]: 14.1 µM (inconclusive)

COC(=O)c1cc(-c2cccc(OC)c2)[nH]n1
IC50 [9]: > 100 µM (inactive)

Cn1c(/C(C#N)=C(\O)c2ccc([N+](=O)[O-])s2)nc2ccccc21
IC50 [9]: > 100 µM (inactive)

COc1cccc(NC(=O)CN(C)CC(=O)Nc2ccc(Cl)cc2[N+](=O)[O-])c1
IC50 [5]: 24 µM (not active)

C[C@H](CO)N1C[C@H](C)[C@H](CN(C)C(=O)Nc2ccc(F)cc2)OCc2ccccc2-c2c(n(C)c3ccccc23)C1=O
AC50 [6]: < 0.26 µM (active)
AC50 [12]: < 0.26 µM (active)
AC50 [10]: < 0.26 µM (active)

C#Cc1ccc([C@@H]2C=C(C(=O)O)O[C@H](OCC)[C@H]2CCCO)cc1
IC50 [4]: 4.59 µM (active)

Cc1ccc(S(=O)(=O)N/N=C/c2ccc(O)c(O)c2)cc1[N+](=O)[O-]
AC50 [7]: 1.06 µM (active)

Cc1ccc(-c2ccc3c(c2)O[C@@H](CN(C)Cc2cccnc2)[C@H](C)CN([C@H](C)CO)S3(=O)=O)cc1
AC50 [6]: 33.3 µM (active)

CCN(CC)c1ccc(/C=N/NC(=O)CNC(=O)c2ccccn2)cc1
AC50 [7]: 0.91 µM (active)

Oc1ccccc1/C=N/n1c(S)nnc1-c1ccccc1
IC50 [8]: 82.2 µM (active)

O=C(O)c1cccc(N/N=C/c2cc(Br)cc(Br)c2O)c1
AC50 [7]: 1.99 µM (active)

COc1cc(/C=N/NC(=O)CCc2c(C)n[nH]c2C)ccc1O
IC50 [3]: 12.9 µM (active)

CC(C)(C)[S@@+]([O-])N1Cc2cc(C(=O)N3CCc4ccccc4C3)nc(-c3cccc(-c4ccncc4)c3)c2[C@H]1CCO
AC50 [13]: 5.87 µM (active)

COc1ccc2c3c(n(C)c2c1)[C@H](CO)N(Cc1ccccc1OC)CC31CN(CC2CCOCC2)C1
AC50 [13]: 4.81 µM (active)

COc1ccc2c3c(n(C)c2c1)[C@@H](CO)N(C(=O)Nc1ccccc1F)CC31CCN(C)CC1
AC50 [13]: 5.95 µM (active)

COc1ccc2c3c([nH]c2c1)[C@@H](CO)N(Cc1cc(F)ccc1F)CC31CN(C(=O)C2CCC2)C1
AC50 [13]: 6.17 µM (active)

CC(C)c1cn([C@H]2C[C@@H]3O[C@H](CO)CC[C@@H]3O[C@@H]2CCc2ccc(C#CC3(O)CCCC3)cc2)nn1
AC50 [13]: 6.12 µM (active)

Source: ChEMBL document CHEMBL1201862, “PubChem BioAssay data set” (2004)
